Measured values: article PMC3511273, “Identification of PPARgamma Partial Agonists of Natural Origin (I): Development of a Virtual Screening Procedure and In Vitro Validation” (PLoS ONE, 2012)
pIC50: −log10 of the molar value.

What follows are molecules tested against T1, PPARγ ligand-binding domain (PPARγ LBD) (Homo sapiens, UniProt P37231) (assay: fluorescence polarization competition (PolarScreen PPARγ Competitor Assay Green)). Settings: displacement of fluorescent PPARγ ligand; ex 485 nm, em 535 nm; unreliable.
T1 construct: gene PPARG
T1 sequence (P37231 238-505 limits assumed): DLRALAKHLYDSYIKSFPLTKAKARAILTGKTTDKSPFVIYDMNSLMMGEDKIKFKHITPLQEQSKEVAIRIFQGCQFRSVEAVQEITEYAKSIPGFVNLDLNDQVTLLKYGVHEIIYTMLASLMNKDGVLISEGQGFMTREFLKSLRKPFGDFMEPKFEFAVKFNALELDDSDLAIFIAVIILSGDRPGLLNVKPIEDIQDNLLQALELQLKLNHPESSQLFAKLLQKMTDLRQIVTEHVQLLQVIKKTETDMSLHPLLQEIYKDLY

| SMILES | IC50 [µM] |
| --- | --- |
| Cc1ccc(C2(CC(=O)O)CCOC(C)(C)C2)cc1 (stereo not drawn) [C2, ZINC00201868] | > 8000 |
| Cc1oc2c(C)c3oc(=O)c(CC(=O)N4CCC(C(=O)O)CC4)c(C)c3cc2c1C [C6, ZINC02156886] | > 8000 |
| COc1ccc(C(O)=C2C(=O)C(=O)N(Cc3cccnc3)C2c2ccc(O)cc2)c(C)c1 (stereo not drawn) [C3, ZINC00914339] | > 8000 |

Same assay, conditions: read-out: Binding affinityIC50

| SMILES | pIC50 |
| --- | --- |
| CC(C)C[C@H](NC(=O)OCC1c2ccccc2-c2ccccc21)C(=O)O [FMOC, reference compound] | 4.73 |
| Cc1cc(C)c2c(O)nn(C3CCOC(C)(C)C3)c2n1 (stereo not drawn) [C8, ZINC04040746] | 3.34 |
| Cc1ccc(C(c2ccc(C)o2)c2ccccc2C(=O)O)o1 [C7, ZINC03846929] | 3.60 |
| C=C(C)COc1ccc2oc(-c3ccccc3)c(C(=O)O)c2c1 [C1, ZINC00083676] | 4.91 |
| CC(C)C(NC(=O)C(Cc1ccccc1)n1c(=O)[nH]c2ccccc2c1=O)C(=O)O (stereo not drawn) [C5, ZINC02128851] | 3.00 |
| CC1(C)SC2c3ccccc3C(=O)N2C1C(=O)NC(Cc1ccccc1)C(=O)O (stereo not drawn) [C9, ZINC04085288] | 3.23 |
